According to publication PMC6718442, “11β-Hydroxysteroid dehydrogenases control access of 7β,27-dihydroxycholesterol to retinoid-related orphan receptor γ” (Journal of Lipid Research, 2019):
Read-outs that look alike come from different tables or passages of the source.

Experiments:
mouse 11β-hsd2 = molecular target: T1, mouse 11β-hsd2 (Mus musculus, UniProt P51661); assay: 11β-hsd2 activity in mouse kidney homogenates (corticosterone to 11-dehydrocorticosterone); assay type: biochemical
T1 construct: The determination of 11β-hsd2 activity in mouse kidney homogenates; from tissue; host or cells: kidney of adult male C57BL6 mice
T1 sequence (P51661 1-386): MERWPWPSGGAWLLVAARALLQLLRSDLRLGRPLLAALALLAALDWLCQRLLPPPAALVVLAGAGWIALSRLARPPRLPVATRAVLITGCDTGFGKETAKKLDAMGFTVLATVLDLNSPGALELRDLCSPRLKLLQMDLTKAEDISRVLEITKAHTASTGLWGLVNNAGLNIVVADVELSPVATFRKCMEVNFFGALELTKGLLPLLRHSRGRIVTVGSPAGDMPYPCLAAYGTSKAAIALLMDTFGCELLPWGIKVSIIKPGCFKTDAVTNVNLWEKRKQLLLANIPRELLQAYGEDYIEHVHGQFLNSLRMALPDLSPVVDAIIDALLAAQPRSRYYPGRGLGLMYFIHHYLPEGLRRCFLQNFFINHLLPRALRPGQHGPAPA
Method: The determination of 11β-hsd2 activity in mouse kidney homogenates was conducted as described earlier ([41]). Briefly, for homogenate preparation, kidneys from adult male mice (C57BL6) were snap-frozen and sonicated in homogenization buffer [250 mM sucrose, 10 mM HEPES (pH 7.4); 900 μl for 100 mg of tissue]. Then, the homogenate was centrifuged (2,000 g, 4°C for 10 min) and the total protein concentration determined. The enzymatic reaction was assessed using 0.075 mg/ml total protein of the kidney homogenate in incubation buffer [300 mM NaCl, 20 mM Tris/HCl, 1 mM EDTA, 10% glycerol (pH 7.7)], different concentrations of oxysterols, 50 nM of corticosterone (containing 50 nCi [1,2,6,7-^3H] corticosterone), and 500 μM NAD^+ at 37°C for 20 min. Corticosterone and 11-dehydrocorticosterone were separated using TLC. Substrate conversion was determined by scintillation counting. Data (mean ± SD) were normalized to vehicle control (DMSO) and obtained from at least three independent experiments.

human 11β-HSD1 = molecular target: T2, human 11β-HSD1 (Homo sapiens, UniProt P28845); assay: Inhibition of 11β-HSD1-dependent oxoreduction of cortisone in HEK-293 cell lysates; assay type: biochemical; details: for IC50: human enzyme, 200 nM cortisone, read-out: IC50, 11β-HSD1-dependent conversion of cortisone to cortisol
T2 construct: expressed in transfected cells
T2 sequence (P28845 whole entry): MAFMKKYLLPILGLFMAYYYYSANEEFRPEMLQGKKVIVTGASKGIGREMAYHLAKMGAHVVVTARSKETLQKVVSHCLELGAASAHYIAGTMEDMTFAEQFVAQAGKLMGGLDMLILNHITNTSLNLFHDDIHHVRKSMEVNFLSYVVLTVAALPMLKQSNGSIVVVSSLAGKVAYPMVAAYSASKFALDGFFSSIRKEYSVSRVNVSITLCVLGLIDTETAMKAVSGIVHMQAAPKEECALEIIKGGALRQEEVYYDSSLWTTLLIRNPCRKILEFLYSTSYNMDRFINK
Method: 11β-HSD1 and 11β-HSD2 enzyme activities were assessed in lysates of HEK-293 cells stably expressing the respective enzyme as reported earlier ([40]). Briefly, 11β-HSD1-dependent oxoreductase activity was determined by the incubation of lysates with 200 nM of radiolabeled cortisone, 500 μM of NADPH, and the test substance or vehicle for 10 min at 37°C. 11β-HSD2-dependent oxidation of cortisol was measured instead by the addition of 50 nM of radiolabeled cortisol and 500 μM of NAD^+. The enzymatic reaction was stopped by introducing an excess amount of unlabeled cortisone and cortisol (1:1, 2 mM unlabeled each, in methanol). Cortisone and cortisol were separated using TLC and a chloroform and methanol (9:1, v/v) mixture. The bands were detected under UV light, scraped off the plate, and metabolism of the radiolabeled substrate was then evaluated by scintillation counting and the substrate conversion determined and compared with the control sample. Data (mean ± SD) were normalized to the control (DMSO) sample and obtained from at least three independent experiments.

RORγ = molecular target: T3, RORγ (Homo sapiens, UniProt P51449); assay: RORγ reporter gene assay in doxycycline-inducible RORγ CHO Tet-on cells transfected with 11β-HSD1/H6PDH, 11β-HSD2 or pcDNA3; assay type: cell-based; design: only weakly by 7k27OHC when full-length receptors are considered [([31]), present study]; expressed in transfected cells
T3 sequence (P51449 1-518): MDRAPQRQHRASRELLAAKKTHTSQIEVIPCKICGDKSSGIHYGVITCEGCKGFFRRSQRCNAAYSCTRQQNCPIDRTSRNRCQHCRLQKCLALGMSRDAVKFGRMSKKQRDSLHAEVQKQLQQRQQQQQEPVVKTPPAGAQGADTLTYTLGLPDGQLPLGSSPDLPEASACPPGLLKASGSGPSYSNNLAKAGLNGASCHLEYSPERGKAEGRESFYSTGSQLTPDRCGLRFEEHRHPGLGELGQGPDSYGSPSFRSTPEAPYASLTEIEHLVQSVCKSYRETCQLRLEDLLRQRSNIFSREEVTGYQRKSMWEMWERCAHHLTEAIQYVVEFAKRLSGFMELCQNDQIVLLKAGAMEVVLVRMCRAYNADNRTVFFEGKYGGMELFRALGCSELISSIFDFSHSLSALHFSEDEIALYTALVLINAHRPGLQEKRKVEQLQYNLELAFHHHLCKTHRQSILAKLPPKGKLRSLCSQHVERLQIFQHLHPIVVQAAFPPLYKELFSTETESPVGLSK
Method: Doxycycline-inducible RORγ CHO Tet-on cells were transfected with 11β-HSD1/H6PDH, 11β-HSD2. or pcDNA3 using the electroporation method according to the manufacturer’s protocol (Neon™ transfection system; Invitrogen). Briefly, the cells […]). Three electric pulses of 1,620 V and 10 ms were delivered to the cells using a 100 μl gold tip. Then, the cells (20,000 cells per well) were seeded in 96-well plates using culture medium without antibiotics and incubated for 16 h. The medium was replaced with medium containing charcoal-dextran stripped FBS for 1.5 h before treating the cells with different concentrations of oxysterols. After 6 h, 1.25 μM of the inverse agonist SR2211 was added to the treatment for another 2 h. To induce ROR expression, the cells were additionally subjected to 1 μM doxycycline for a further 16 h. The cells were lysed in 20 μl Tropix lysis solution supplemented with 0.5 mM dithiothreitol. RORγ-mediated activation of the luciferase reporter was measured in 10 μl lysate by adding 100 μl of D-luciferin-firefly substrate solution. Data (mean ± SD) were obtained from at least three independent experiments.

[1] = 11β-HSD2 expressing RORγ Tet-on cells

| Structure (SMILES) | IC50 (mouse 11β-hsd2; 50 nM corticosterone, 20 min, 37°C, read-out: IC50, mouse 11β-hsd2 activity (corticosterone to 11-DHC)) | IC50 (human 11β-HSD1; 10 min, 37°C) | Reversal of the inhibitory effect of SR2211 on RORγ reporter (in words) (RORγ; [1]) | Reversal of the inhibitory effect of SR2211 on RORγ reporter (in words) (RORγ; coexpression of RORγ with 11β-HSD1) | Inhibition of mouse 11β-hsd2 activity (in words) (mouse 11β-hsd2) | Inhibition of human 11β-HSD1 enzyme activity (in words) (human 11β-HSD1; concentrations up to 10 μM, data not shown) | Effect on RORγ reporter (in words) (RORγ; only control plasmid expressed, data not shown) | IC50 (human 11β-HSD1) |
| --- | --- | --- | --- | --- | --- | --- | --- | --- |
| CC(CO)CCC[C@@H](C)[C@H]1CC[C@H]2[C@@H]3C(=O)C=C4C[C@@H](O)CC[C@]4(C)[C@H]3CC[C@]12C (stereo partly shown) [7k27OHC, 7-keto,27-hydroxycholesterol] | 1650 ± 400 nM | 357 ± 38 nM | weak response | capable of reversing the inhibitory effect of the RORγ antagonist, SR2211, in the same manner as 7β27OHC |  |  |  |  |
| C[C@@H](CO)CCC[C@@H](C)[C@H]1CC[C@H]2[C@@H]3[C@H](O)C=C4C[C@@H](O)CC[C@]4(C)[C@H]3CC[C@]12C [7α27OHC] |  |  |  |  | Neither 7β27OHC nor 7α27OHC inhibited | did not inhibit the enzyme activity | same weak concentration-dependent effect as 7k27OHC |  |
| CC(CO)CCC[C@@H](C)[C@H]1CC[C@H]2[C@@H]3[C@@H](O)C=C4C[C@@H](O)CC[C@]4(C)[C@H]3CC[C@]12C (stereo partly drawn) [7β27OHC, 7β,27-dihydroxycholesterol] |  |  | could not restore RORγ activity |  | Neither 7β27OHC nor 7α27OHC inhibited |  |  | ≥ 3000 nM |
